Experimental data published in patent publication US9403805B2, “Antiviral compounds” (Hoffmann-La Roche Inc., priority 2012, dated 2016).

Test system: HCV GT1b replicon
Test: HCV GT1b replicon luciferase reporter assay (2209-23 cells)
Type: cell-based
Settings: Hepatitis C virus, genotype 1a / genotype 1b; 2209-23 cells (Huh-7 with GT-1b Con1 subgenomic replicon), Renilla luciferase read 72 hours after compound addition; read-out: GT-1a - EC50 (nM) HCV, GT1b, IC50 (µM)
Text: Determination of compounds HCV GT1b inhibitory replicon activity using the replicon luciferase reporter assay
The 2209-23 cell line was developed at Roche by stable transfection of the hepatoma cell line Huh-7 with a GT-1b Con1 subgenomic bicistronic replicon as previously described. Subgenomic replicon cell line was established in cured Huh7 cells, obtained from R. Bartenschlager (J Virol. 2003 March; 77 (5):3007-19) The GT-1a H77 subgenomic replicon vector pRLuc H77 1b 75 S/I, was created by replacing the nonstructural region of the GT-1b Con1 subgenomic replicon by the one of the H77 strain, except for the first 75 amino acids of the NS3 protein that are from GT-1b Conl strain. (J. Virol. 2001 77:5352-59) The GT-1a pRLuc H77 1b 75 S/I subgenomic replicon cell line was established in cured Huh7 cells, obtained from R. Bartenschlager. (J Virol. 2003 March; 77 (5):3007-19)
All the subgenomic replicon cell lines were cultured in Dulbecco's Modified Eagle Medium (DMEM-Glutamax™-I; Invitrogen Cat #10569-010). The medium was supplemented with 10% Fetal Bovine Serum (Invitrogen Cat #10082-147), 1% penicillin/streptomycin (Mediatech Cat #30-002-CI) and 500 μg/ml of G418 (Mediatech Cat #30-234-CI). Cells were maintained at 37° C. in a humidified 5% CO2 atmosphere.
2209-23 cells were plated at a cell density of 5000 cells per well in 96 well plates (Becton Dickinson, Cat #35 3296). Cells were plated in 90 μl of Dulbecco's Modified Eagle Medium (DMEM-Glutamax™-I), (Invitrogen Cat #10569-010) medium was supplemented with 5% Fetal Bovine Serum (Invitrogen Cat #10082-147), 1% penicillin/streptomycin (Mediatech Cat #30-002-CI). The pRluc H77 1b 75 SA cells were plated in 96-well plate at 3000 cells/well in DMEM-Glutamax™-I containing 5% FBS and 1% penicillin/streptomycin in 90 μl final volume. Cells were allowed to equilibrate for 24 hours at 37° C. and 5% CO2 at which time compounds were added. Compounds (or medium as a control) were added 24 hours post-plating in 3 fold dilutions at a final DMSO concentration of 1% in 10 μl volume. Renilla luciferase reporter signal was read 72 hours after addition of compounds using the Renilla Luciferase Assay System (Promega, cat #E2820). EC50 values were defined as the compound concentration at which a 50% reduction in the levels of renilla luciferase reporter was observed as compared to control samples in the absence of compound and was determined by non-linear fitting of compound dose-response data. The EC50 was approximated if maximum percentage inhibition was less than 90% and more than 70%.

| SMILES | IC50 [nM] |
| --- | --- |
| COC(=O)[C@@H]1C[C@@H](NC(=O)c2ccc3ccccc3c2O)CN1CC1CCCCC1 [Compound I-28, (2S,4R)-1-Cyclohexylmethyl-4-[(1-hydroxy-naphthalene-2-carbonyl)-amino]-pyrrolidine-2-carboxylic acid methyl ester] | 793 |
| O=C(N[C@H]1C[C@@H](C(=O)N2CCC2)N(CC2CCCCC2)C1)c1ccc2ccccc2c1O [Compound I-29, 1-Hydroxy-naphthalene-2-carboxylic acid [(3S,5S)-5-(azetidine-1-carbonyl)-1-cyclohexylmethyl-pyrrolidin-3-yl]-amide] | 826 |
